The text below walks through data of patent publication US12545677B2, “Compounds useful as factor XIa inhibitors” (JANSSEN PHARMACEUTICA NV, priority 2020, dated 2026).

One may read the clearance as the volume of plasma or blood freed of the substance per unit of time. What is called Cmax is the peak of the concentration-time curve.

SMILES strings stand for the structures. Read-outs that look alike come from different tables or passages of the source.

Series [1] relates to TK6 human lymphoblastoid cell line. Kind of series: In vitro micronucleus assay. It is filed as cell-based. The following applies: TK6 cells, 3 h +S9 and continuous -S9; score of 1 = clearly negative. The protocol:
Biological Example 8: In Vitro Micronucleus Assay
The in vitro micronucleus test (MNT) is a genotoxicity test for the detection of micronuclei (MN) in the cytoplasm of interphase cells. Micronuclei may originate from acentric chromosome fragments (i.e., lacking a centromere) or whole chromosomes that are unable to migrate to the poles during the anaphase stage of cell division. Compounds and/or their metabolites are evaluated for their ability to induce chromosome/genome aberrations in a TK6 human lymphoblastoid cell line, in the absence and in the presence of a mammalian metabolic activation system. Human TK6 cells are often used in the in vitro micronucleus test and it is noteworthy that these cells have a wild-type p53 status, a feature that some groups speculate may help to reduce the frequency of false positive results. The assessment is done by means of manual and/or semi-automated microscopical analysis.
The in vitro micronucleus test using TK6 cells is an accepted regulatory genotoxicity assay. […]
Assay principle: Cell cultures were exposed to the test compound both with and without an exogenous source of metabolic activation. […] Harvested and stained interphase cells were analyzed for the presence of micronuclei. […]

A further series in a line: Rat PK study. In kind it is in vivo, Sprague-Dawley rats. The method, then:
Biological Example 5: PK Studies
Animals: Male Sprague-Dawley rats (7-8 weeks old, body weight 250-300 g) were kept in plastic cages with free access to standard rat diet (Keaoxieli, Beijing, China) and water. The animals were maintained at a temperature of 20-25° C. with a 12-hour light/dark cycle and relative humidity of 40%-70% before the experiment.
Pharmacokinetics in rats: The cannulation of the jugular vein was pre-treated to the rats 2-3 days prior to the study. Test compound (dissolved in PEG400/water (1:1) or suspended in 0.5% HPMC) was administered orally via oral gavage at a dose of 5 or 10 mg/kg to 3 rats, and test compound (dissolved in 20% HPbCD or PEG400/water (1:1)) was injected to the tail vein at a dose of 1 or 2 mg/kg to 3 rats.
Blood samples (approximately 0.2 ml, each) were collected from the jugular vein at 0 (as a pre-dose), 5 (only for IV administration), 15, 30, 60, 120, 240, 360, 480 and 1440 mins post dose. A volume of 0.2 ml of heparinized 0.9% NaCl injectable solution (50 U/mL) was used to flush each cannula immediately after obtaining each blood sample, in order to prevent blood clotting and to compensate for fluid loss. Blood samples were separated by centrifugation, and approximately 0.1 ml aliquot of plasma was stored at −80° C. until analysis.
LC-MS/MS analysis: The analyte was assayed by a liquid chromatography coupled with tandem mass spectrometry (LC-MS/MS) method. The LC-MS/MS system consisted of a Shimadzu HPLC system (Kyoto, Japan) and API 5500 triple-quadrupole mass spectrometer equipped with a turbo electrospray ionization (ESI) source (AB Sciex, Toronto, Canada). LC conditions were as follows: column, Synergi 2.5μ Polar-RP 100A (50*3.0 mm) (Phenomenex, Torrance, CA); gradient elution at 0.5 mL/min with 5% acetonitrile in water containing 0.1% formic acid or 95% acetonitrile in water containing 0.1% formic acid; and injection volume, 10 μL. A multiple reaction monitoring (MRM) method was selected for quantitative analysis. The optimized transitions were Q1→Q3 and M1→M3 for analyte and internal standard, respectively. The instrumental parameters were set as follows: ion spray voltage: 5500 V; curtain gas: 30 psi; nebulizer gas: 50 psi; turbo gas: 50 psi; collision gas: 10 psi; temperature: 450° C.
Data analysis: Standard methods were used to calculate the pharmacokinetic parameters, such as the total area under the plasma concentration-time curve from time 0 to infinity (AUC0-t) and terminal half-life, using non-compartmental analysis (WinNonlin), the peak plasma concentration (Cmax) and time to reach Cmax (Tmax) were determined directly from the experimental data.

Regarding `O=C1C=C(c2c(-n3cnnn3)ccc(Cl)c2F)C[C@H]2CC[C@@H](c3ncc(-c4ccnc(CO)c4F)[nH]3)N12` [Compound of formula (I-A), (3S,8aR)-7-(3-Chloro-2-fluoro-6-(1H-tetrazol-1-yl)phenyl)-3-(5-(3-fluoro-2-(hydroxymethyl)pyridin-4-yl)-1H-imidazol-2-yl)-2,3,8,8a-tetrahydroindolizin-5(1H)-one], the “in vitro MNT assay result” value in series [1] was “negative”. Further, the F in the series “Rat PK study” (formulation vehicle: 0.5% HPMC at 10 mg/kg) is 53.4% (formulation vehicle: 0.5% HPMC at 10 mg/kg). Also, the clearance in the series “Rat PK study” (male, Sprague-Dawley, plasma, IV, 20% HPbCD at 2 mg/kg) worked out at 19.6 mL/min/kg. The half-life in “Rat PK study” (male, Sprague-Dawley, plasma, IV, formulation vehicle: 20% HPbCD at 2 mg/kg, read-out: t1/2 (IV) (converted)) is 195 min; in the series “Rat PK study” (male, Sprague-Dawley, plasma, PO, 0.5% HPMC at 10 mg/kg, read-out: t1/2 (PO) (converted)), 160 min. Besides, the Cmax in the series “Rat PK study” (male, Sprague-Dawley, plasma, PO, 0.5% HPMC at 10 mg/kg) amounted to 3770 ng/mL.
